Test results published in ChEMBL document CHEMBL1255299, “Killing of Neisseria gonorrhoeae, Streptococcus agalactiae (group B streptococcus), Haemophilus ducreyi, and vaginal Lactobacillus by 3-O-octyl-sn-glycerol” (2008).
Calls of active or inactive are those of the source. The rule behind the calls is not given here.

Columns and labels:
Neisseria gonorrhoeae [1] = assay: Microbicidal activity against Neisseria gonorrhoeae ATCC 19424 after 30 mins; format: functional; conditions: ATCC 19424, 0.5 h
Lactobacillus iners = assay: Microbicidal activity against Lactobacillus iners after 30 mins; format: functional
Lactobacillus jensenii [2] = assay: Microbicidal activity against Lactobacillus jensenii after 30 mins; format: functional; conditions: 0.5 h
Lactobacillus crispatus [3] = assay: Microbicidal activity against Lactobacillus crispatus after 30 mins; format: functional; conditions: 0.5 h
Neisseria gonorrhoeae [4] = assay: Microbicidal activity against Neisseria gonorrhoeae ATCC 49226 after 30 mins; format: functional; conditions: ATCC 49226, 0.5 h
Lactobacillus crispatus [5] = assay: Antimicrobial activity against Lactobacillus crispatus ATCC 33197 at 4.4 mM in presence of 0.6 mM human serum albumin; format: functional
Pseudomonas aeruginosa [6] = assay: Antimicrobial activity against Pseudomonas aeruginosa at 4.4 mM in presence of 0.5 mM delipidated human serum albumin; format: functional, organism-based
Neisseria gonorrhoeae [7] = assay: Antimicrobial activity against Neisseria gonorrhoeae ATCC 49226 at 4.4 mM in presence of 0.1 mM human serum albumin; format: functional, organism-based
Lactobacillus crispatus [8] = assay: Antimicrobial activity against Lactobacillus crispatus ATCC 33197 at 4.4 mM in presence of 0.4 mM human serum albumin; format: functional
Lactobacillus crispatus [9] = assay: Antimicrobial activity against Lactobacillus crispatus ATCC 33197 at 4.4 mM in presence of 0.1 mM human serum albumin; format: functional
Lactobacillus crispatus [10] = assay: Antimicrobial activity against Lactobacillus crispatus ATCC 20225 at 4.4 mM in presence of 0.3 mM human serum albumin; format: functional
Pseudomonas aeruginosa [11] = assay: Antimicrobial activity against Pseudomonas aeruginosa at 4.4 mM in presence of 0.3 mM delipidated human serum albumin; format: functional, organism-based
Lactobacillus jensenii [12] = assay: Antimicrobial activity against Lactobacillus jensenii ATCC 25258 at 4.4 mM in presence of 0.7 mM human serum albumin; format: functional
Pseudomonas aeruginosa [13] = assay: Antimicrobial activity against Pseudomonas aeruginosa at 4.4 mM in presence of 0.6 mM delipidated human serum albumin; format: functional, organism-based
Lactobacillus crispatus [14] = assay: Antimicrobial activity against Lactobacillus crispatus ATCC 20225 at 4.4 mM in presence of 0.7 mM human serum albumin; format: functional
Pseudomonas aeruginosa [15] = assay: Antimicrobial activity against Pseudomonas aeruginosa at 4.4 mM in presence of 0.1 mM human serum albumin; format: functional, organism-based
Neisseria gonorrhoeae [16] = assay: Antimicrobial activity against Neisseria gonorrhoeae ATCC 49226 at 4.4 mM in presence of 0.3 mM human serum albumin; format: functional, organism-based
Streptococcus agalactiae [17] = assay: Microbicidal activity against Streptococcus agalactiae serotype IV after 30 mins; format: functional; conditions: 0.5 h
Lactobacillus crispatus [18] = assay: Antimicrobial activity against Lactobacillus crispatus ATCC 20225 at 4.4 mM in presence of 0.4 mM human serum albumin; format: functional
Pseudomonas aeruginosa [19] = assay: Antimicrobial activity against Pseudomonas aeruginosa at 4.4 mM in presence of 0.6 mM human serum albumin; format: functional, organism-based
Streptococcus agalactiae [20] = assay: Microbicidal activity against Streptococcus agalactiae serotype V after 30 mins; format: functional; conditions: 0.5 h
Lactobacillus crispatus [21] = assay: Antimicrobial activity against Lactobacillus crispatus ATCC 20225 at 4.4 mM in presence of 0.1 mM human serum albumin; format: functional
Lactobacillus jensenii [22] = assay: Antimicrobial activity against Lactobacillus jensenii ATCC 25258 at 4.4 mM in presence of 0.1 mM human serum albumin; format: functional
Lactobacillus jensenii [23] = assay: Antimicrobial activity against Lactobacillus jensenii ATCC 25258 at 4.4 mM in presence of 0.4 mM human serum albumin; format: functional
Streptococcus agalactiae [24] = assay: Microbicidal activity against Streptococcus agalactiae serotype 1A after 30 mins; format: functional; conditions: serotype IA, 0.5 h
Lactobacillus crispatus [25] = assay: Antimicrobial activity against Lactobacillus crispatus ATCC 33197 at 4.4 mM in presence of 0.3 mM human serum albumin; format: functional
Lactobacillus crispatus [26] = assay: Antimicrobial activity against Lactobacillus crispatus ATCC 33197 at 4.4 mM in presence of 0.7 mM human serum albumin; format: functional
Pseudomonas aeruginosa [27] = assay: Antimicrobial activity against Pseudomonas aeruginosa at 4.4 mM in presence of 0.4 mM delipidated human serum albumin; format: functional, organism-based
Lactobacillus crispatus [28] = assay: Antimicrobial activity against Lactobacillus crispatus ATCC 33197 at 4.4 mM in presence of 0.2 mM human serum albumin; format: functional
Lactobacillus crispatus [29] = assay: Antimicrobial activity against Lactobacillus crispatus ATCC 20225 at 4.4 mM in presence of 0.6 mM human serum albumin; format: functional
Streptococcus agalactiae [30] = assay: Microbicidal activity against Streptococcus agalactiae serotype III after 30 mins; format: functional; conditions: 0.5 h
Lactobacillus crispatus [31] = assay: Antimicrobial activity against Lactobacillus crispatus ATCC 33197 at 4.4 mM in presence of 0.05 mM human serum albumin; format: functional
Lactobacillus crispatus [32] = assay: Antimicrobial activity against Lactobacillus crispatus ATCC 20225 at 4.4 mM in presence of 0.05 mM human serum albumin; format: functional
Lactobacillus jensenii [33] = assay: Antimicrobial activity against Lactobacillus jensenii ATCC 25258 at 4.4 mM in presence of 0.6 mM human serum albumin; format: functional
Neisseria gonorrhoeae [34] = assay: Antimicrobial activity against Neisseria gonorrhoeae ATCC 49226 at 4.4 mM in presence of 0.5 mM human serum albumin; format: functional, organism-based
Pseudomonas aeruginosa [35] = assay: Antimicrobial activity against Pseudomonas aeruginosa at 4.4 mM in presence of 0.2 mM delipidated human serum albumin; format: functional, organism-based
Neisseria gonorrhoeae [36] = assay: Antimicrobial activity against Neisseria gonorrhoeae ATCC 49226 at 4.4 mM in presence of 0.7 mM human serum albumin; format: functional, organism-based
Pseudomonas aeruginosa [37] = assay: Antimicrobial activity against Pseudomonas aeruginosa at 4.4 mM in presence of 0.2 mM human serum albumin; format: functional, organism-based
Neisseria gonorrhoeae [38] = assay: Antimicrobial activity against Neisseria gonorrhoeae ATCC 49226 at 4.4 mM in presence of 0.2 mM human serum albumin; format: functional, organism-based
Streptococcus agalactiae [39] = assay: Microbicidal activity against Streptococcus agalactiae serotype 1B after 30 mins; format: functional; conditions: 0.5 h
Lactobacillus crispatus [40] = assay: Antimicrobial activity against Lactobacillus crispatus ATCC 20225 at 4.4 mM in presence of 0.2 mM human serum albumin; format: functional
Neisseria gonorrhoeae [41] = assay: Antimicrobial activity against Neisseria gonorrhoeae ATCC 49226 at 4.4 mM in presence of 0.4 mM human serum albumin; format: functional, organism-based
Pseudomonas aeruginosa [42] = assay: Antimicrobial activity against Pseudomonas aeruginosa at 4.4 mM in presence of 0.1 mM delipidated human serum albumin; format: functional, organism-based
Pseudomonas aeruginosa [43] = assay: Antimicrobial activity against Pseudomonas aeruginosa at 4.4 mM in presence of 0.4 mM human serum albumin; format: functional, organism-based
Streptococcus agalactiae [44] = assay: Microbicidal activity against Streptococcus agalactiae serotype II after 30 mins; format: functional; conditions: 0.5 h
Lactobacillus jensenii [45] = assay: Antimicrobial activity against Lactobacillus jensenii ATCC 25258 at 4.4 mM in presence of 0.05 mM human serum albumin; format: functional
Lactobacillus jensenii [46] = assay: Antimicrobial activity against Lactobacillus jensenii ATCC 25258 at 4.4 mM in presence of 0.5 mM human serum albumin; format: functional
Pseudomonas aeruginosa [47] = assay: Antimicrobial activity against Pseudomonas aeruginosa at 4.4 mM in presence of 0.3 mM human serum albumin; format: functional, organism-based
Lactobacillus jensenii [48] = assay: Antimicrobial activity against Lactobacillus jensenii ATCC 25258 at 4.4 mM in presence of 0.2 mM human serum albumin; format: functional
Lactobacillus jensenii [49] = assay: Antimicrobial activity against Lactobacillus jensenii ATCC 25258 at 4.4 mM in presence of 0.3 mM human serum albumin; format: functional
Pseudomonas aeruginosa [50] = assay: Antimicrobial activity against Pseudomonas aeruginosa at 4.4 mM in presence of 0.5 mM human serum albumin; format: functional, organism-based
Lactobacillus crispatus [51] = assay: Antimicrobial activity against Lactobacillus crispatus ATCC 20225 at 4.4 mM in presence of 0.5 mM human serum albumin; format: functional
[Haemophilus] ducreyi = Microbicidal activity against Haemophilus ducreyi after 30 mins; format: functional; conditions: 0.5 h
Neisseria gonorrhoeae [52] = assay: Antimicrobial activity against Neisseria gonorrhoeae ATCC 49226 at 4.4 mM in presence of 0.6 mM human serum albumin; format: functional, organism-based
Neisseria gonorrhoeae [53] = assay: Antimicrobial activity against Neisseria gonorrhoeae ATCC 49226 at 4.4 mM in presence of 0.05 mM human serum albumin; format: functional, organism-based
Lactobacillus crispatus [54] = assay: Antimicrobial activity against Lactobacillus crispatus ATCC 33197 at 4.4 mM in presence of 0.5 mM human serum albumin; format: functional
Lactobacillus vaginalis = assay: Microbicidal activity against Lactobacillus vaginalis after 30 mins; format: functional

Compound CCCCCCCCOC[C@@H](O)CO has an MCC (Neisseria gonorrhoeae [1]) of 2.5 mM, an MCC (Lactobacillus iners) of 4 mM and an MCC (Lactobacillus jensenii [2]) of 3 mM. The MCC (Lactobacillus crispatus [3]) was 5 mM and the MCC (Neisseria gonorrhoeae [4]) was 2.5 mM.
For CCCCCCCCOC[C@H](O)CO, the Activity (Lactobacillus crispatus [5]) was “inactive”, the Activity (Pseudomonas aeruginosa [6]) was “inactive” and the Activity (Neisseria gonorrhoeae [7]) was “Active”. For the same compound, the Activity (Lactobacillus crispatus [8]) was “inactive”, the Activity (Lactobacillus crispatus [9]) was “Active” and the Activity (Lactobacillus crispatus [10]) was “inactive”. For the same compound, the Activity (Pseudomonas aeruginosa [11]) was “inactive”, the Activity (Lactobacillus jensenii [12]) was “inactive” and the Activity (Pseudomonas aeruginosa [13]) was “inactive”. For the same compound, the Activity (Lactobacillus crispatus [14]) was “inactive”, the Activity (Pseudomonas aeruginosa [15]) was “Active” and the Activity (Neisseria gonorrhoeae [16]) was “Active”. The MCC (Streptococcus agalactiae [17]) was 5 mM, the Activity (Lactobacillus crispatus [18]) was “inactive” and the Activity (Pseudomonas aeruginosa [19]) was “inactive”. For the same compound, the MCC (Streptococcus agalactiae [20]) was 5 mM, the Activity (Lactobacillus crispatus [21]) was “Active” and the MCC (Neisseria gonorrhoeae [1]) was 2.5 mM. The Activity (Lactobacillus jensenii [22]) was “Active”, the Activity (Lactobacillus jensenii [23]) was “inactive” and the MCC (Streptococcus agalactiae [24]) was 5 mM. The Activity (Lactobacillus crispatus [25]) was “inactive”, the Activity (Lactobacillus crispatus [26]) was “inactive” and the Activity (Pseudomonas aeruginosa [27]) was “inactive”. For the same compound, the Activity (Lactobacillus crispatus [28]) was “Active”, the Activity (Lactobacillus crispatus [29]) was “inactive” and the MCC (Streptococcus agalactiae [30]) was 5 mM. The Activity (Lactobacillus crispatus [31]) was “Active”, the Activity (Lactobacillus crispatus [32]) was “Active” and the Activity (Lactobacillus jensenii [33]) was “inactive”. For the same compound, the Activity (Neisseria gonorrhoeae [34]) was “Active”, the Activity (Pseudomonas aeruginosa [35]) was “inactive” and the Activity (Neisseria gonorrhoeae [36]) was “inactive”. The Activity (Pseudomonas aeruginosa [37]) was “Active”, the MCC (Lactobacillus iners) was 5 mM and the Activity (Neisseria gonorrhoeae [38]) was “Active”. The MCC (Streptococcus agalactiae [39]) was 5 mM, the MCC (Lactobacillus jensenii [2]) was 5 mM and the Activity (Lactobacillus crispatus [40]) was “Active”. For the same compound, the Activity (Neisseria gonorrhoeae [41]) was “Active”, the Activity (Pseudomonas aeruginosa [42]) was “Active” and the Activity (Pseudomonas aeruginosa [43]) was “Active”. The MCC (Streptococcus agalactiae [44]) was 5 mM, the Activity (Lactobacillus jensenii [45]) was “Active” and the MCC (Lactobacillus crispatus [3]) was 5 mM. For the same compound, the Activity (Lactobacillus jensenii [46]) was “inactive”, the MCC (Neisseria gonorrhoeae [4]) was 2.5 mM and the Activity (Pseudomonas aeruginosa [47]) was “Active”. For the same compound, the Activity (Lactobacillus jensenii [48]) was “Active”, the Activity (Lactobacillus jensenii [49]) was “Active” and the Activity (Pseudomonas aeruginosa [50]) was “inactive”. For the same compound, the Activity (Lactobacillus crispatus [51]) was “inactive”, the MCC ([Haemophilus] ducreyi) was 1.25 mM and the Activity (Neisseria gonorrhoeae [52]) was “Active”. For the same compound, the Activity (Neisseria gonorrhoeae [53]) was “Active”, the Activity (Lactobacillus crispatus [54]) was “inactive” and the MCC (Lactobacillus vaginalis) was greater than 10 mM.
